{"source": "patent US4720493A", "about": "“Thienylthiazole compounds” (Yoshitomi Pharmaceutical Industries, Ltd., priority 1984, dated 1988)", "key": {"hypoxia": {"test_system": "hypoxia", "assay": "Effect on hypoxia (survival time)", "assay_type": "in vivo, female dd-strain mice", "details": "30 mg/kg p.o., 30 min before hypoxia 200 mmHg, mice", "description": "According to the method of Nakanishi et al described in Life Science, vol. 13, p. 467, 1973, 30 mg/kg of test compounds were orally administered to groups of six female dd-strain mice and 30 minutes later the survival time, i.e. time required until respiratory failure, was measured under the hypoxia condition of 200 mmHg. The extention of the survival time against the control group was expressed as a percentage and the results are summarized in Table 3."}, "gastric secretion": {"test_system": "gastric secretion", "assay": "Effect on gastric secretion (Shay pylorus ligation)", "assay_type": "in vivo", "details": "10 mg/kg s.c., pylorus-ligated female Wistar rats, 4 hours", "description": "The experiment was performed according to the method of Shay et al described in Gastroenterology, vol 5, p. 43, 1945.\nGroups of ten female Wistar rats, weighing 130.200 g, were deprived of food and the abdomen of each rat was incised and the pylorus ligated under ether anesthesia. Immediately after pylorus ligation, 10 mg/kg of test compounds were subcutaneously administered. After 4 hours, the gastric contents were collected and centrifuged. The supernatant was regarded as volume of gastric secretion. The acidity of gastric juice was determined by titrating the gastric juice with 0.1N sodium hydroxide to pH 7.0 with an automatic titrator (Kyoto Denshi Kogyo K.K., AT-107).\nThe percent inhibitions (%) of the compounds of the present invention on volume of gastric juice secretion and acidity of gastric juice were calculated and the results are summarized in Table 1."}, "Toxicity": {"assay": "Toxicity", "assay_type": "in vivo, ddY-mice", "text": "Compounds of Examples 5, 11, 14, 15 and 55 were orally or intraperitoneally administered to groups of five ddY-mice."}, "gastric mucous membrane": {"test_system": "gastric mucous membrane", "assay": "Effect on injury of gastric mucous membrane (ethanol)", "assay_type": "in vivo, male Wistar rats", "details": "30 min before ethanol 5 ml/kg p.o.", "description": "Male Wistar rats, weighing 170-250 g, were deprived of food for 48 hours and water for 24 hours and then test compounds were intraperitoneally administered. Thirty minutes after administration of test compounds, 5 ml/kg of ethanol was orally administered. One hour later the stomach of each rat was excised and inflated with 8 ml of a 3% formalin solution. The stomach was incised along the greater curvature and the area (mm^2) of gastric injury were measured and summed. The square root of the sum was used as an ulcer index."}, "tonic seizure": {"test_system": "tonic seizure", "assay": "Antianxiety effect (bicuculline-induced tonic seizure)", "assay_type": "in vivo", "details": "Mus musculus, po, 1 hour before bicuculline 0.6 mg/kg i.v., male ddY-mice; read-out: ED50 (prevention of tonic seizure in half of the animals)", "description": "Test compounds were orally administered to groups of seven male ddY-mice and an hour later 0.6 mg/kg of bicuculline was intraveneously administered. […] The ED50 (mg/kg) was calculated by the probit method as the dose which is sufficient to prevent tonic seizure in half of the animals."}}, "note": "Structures can show the parent of a compound that is named as a salt.", "data": [{"compound": "CC(=O)NCc1ccc(-c2csc(N)n2)s1.Cl", "note": "[Example 1, 2-amino-4-(5-acetylaminomethyl-2-thienyl)thiazole hydrochloride]", "values": [{"measurement": "Extention of the survival time (percentage, against control group)", "setting": "hypoxia", "result": 280, "unit": "%"}]}, {"compound": "CCN(CC)Cc1ccc(-c2csc(N)n2)s1.O=C(O)/C=C/C(=O)O", "note": "[Example 4, 2-Amino-4-(5-diethylaminomethyl-2-thienyl)thiazole fumarate]", "values": [{"measurement": "Percent inhibition of acidity of gastric juice", "setting": "gastric secretion", "result": 38, "unit": "%"}, {"measurement": "Percent inhibition of volume of gastric juice secretion", "setting": "gastric secretion", "result": 65, "unit": "%"}]}, {"compound": "Nc1nc(-c2ccc(CN3CCOCC3)s2)cs1", "note": "[Example 5, 2-Amino-4-(5-morpholinomethyl-2-thienyl)thiazole]", "values": [{"measurement": "Percent inhibition of acidity of gastric juice", "setting": "gastric secretion", "result": 22, "unit": "%"}, {"measurement": "Percent inhibition of volume of gastric juice secretion", "setting": "gastric secretion", "result": 66, "unit": "%"}, {"measurement": "Extention of the survival time (percentage, against control group)", "setting": "hypoxia", "result": 367, "unit": "%"}, {"measurement": "survival of mice, intraperitoneal", "setting": "Toxicity; in vivo", "result": "All mice survived"}, {"measurement": "survival of mice, oral", "setting": "Toxicity; in vivo", "result": "All mice survived"}]}, {"compound": "Nc1nc(-c2ccc(CN3CCCCC3)s2)cs1.O=C(O)/C=C/C(=O)O", "note": "[Example 6, 2-Amino-4-(5-piperidinomethyl-2-thienyl)thiazole fumarate]", "values": [{"measurement": "Percent inhibition (ulcer index, against control group)", "setting": "gastric mucous membrane; 10 mg/kg i.p.", "result": 59, "unit": "%"}, {"measurement": "Extention of the survival time (percentage, against control group)", "setting": "hypoxia", "result": 278, "unit": "%"}]}, {"compound": "CC(C)NCc1ccc(-c2csc(N)n2)s1.O=C(O)/C=C\\C(=O)O", "note": "[Example 7, 2-Amino-4-(5-isopropylaminomethyl-2-thienyl)thiazole maleate]", "values": [{"measurement": "Percent inhibition (ulcer index, against control group)", "setting": "gastric mucous membrane; 3 mg/kg i.p.", "result": 51, "unit": "%"}, {"measurement": "Percent inhibition (ulcer index, against control group)", "setting": "gastric mucous membrane; 10 mg/kg i.p.", "result": 63, "unit": "%"}, {"measurement": "Percent inhibition of acidity of gastric juice", "setting": "gastric secretion", "result": 31, "unit": "%"}, {"measurement": "Percent inhibition of volume of gastric juice secretion", "setting": "gastric secretion", "result": 80, "unit": "%"}]}, {"compound": "CC(=O)OCC(=O)NCc1ccc(-c2csc(N)n2)s1", "note": "[Example 11, 2-amino-4-(5-acetoxyacetylaminomethyl-2-thienyl) thiazole]", "values": [{"measurement": "Percent inhibition (ulcer index, against control group)", "setting": "gastric mucous membrane; 1 mg/kg i.p.", "result": 73, "unit": "%"}, {"measurement": "survival of mice, intraperitoneal", "setting": "Toxicity; in vivo", "result": "All mice survived"}, {"measurement": "survival of mice, oral", "setting": "Toxicity; in vivo", "result": "All mice survived"}]}, {"compound": "CCOCC(=O)NCc1ccc(-c2csc(N)n2)s1", "note": "[Example 14, 2-Amino-4-(5-ethoxyacetylaminomethyl-2-thienyl)thiazole]", "values": [{"measurement": "Percent inhibition (ulcer index, against control group)", "setting": "gastric mucous membrane; 3 mg/kg i.p.", "result": 35, "unit": "%"}, {"measurement": "Percent inhibition of acidity of gastric juice", "setting": "gastric secretion", "result": 39, "unit": "%"}, {"measurement": "Percent inhibition of volume of gastric juice secretion", "setting": "gastric secretion", "result": 53, "unit": "%"}, {"measurement": "Extention of the survival time (percentage, against control group)", "setting": "hypoxia", "result": 204, "unit": "%"}, {"measurement": "survival of mice, intraperitoneal", "setting": "Toxicity; in vivo", "result": "All mice survived"}, {"measurement": "survival of mice, oral", "setting": "Toxicity; in vivo", "result": "All mice survived"}]}, {"compound": "Nc1nc(-c2ccc(CNC(=O)COc3ccccc3)s2)cs1.O=C(O)/C=C\\C(=O)O", "note": "[Example 15, 2-Amino-4-(5-phenoxyacetylaminomethyl-2-thienyl)thiazole maleate]", "values": [{"measurement": "survival of mice, intraperitoneal", "setting": "Toxicity; 300 mg/kg intraperitoneal, five days after administration, ddY-mice", "result": "All mice survived"}, {"measurement": "survival of mice, oral", "setting": "Toxicity; 1000 mg/kg oral, five days after administration, ddY-mice", "result": "All mice survived"}]}, {"compound": "Nc1nc(-c2ccc(CCN3CCN(c4cccc(C(F)(F)F)c4)CC3)s2)cs1", "note": "[Example 47, 2-Amino-4-[5-(2-(4-(3-trifluoromethylphenyl)-1-piperazinyl)ethyl)-2-thienyl]thiazole]", "values": [{"measurement": "ED50", "setting": "tonic seizure", "result": 21, "unit": "mg/kg"}]}, {"compound": "CC(Oc1ccccc1)C(=O)NCc1ccc(-c2csc(N)n2)s1.O=C(O)/C=C\\C(=O)O", "note": "(stereo not drawn) [Example 50, 2-Amino-4-[5-(2-phenoxypropionylaminomethyl)-2-thienyl]thiazole maleate]", "values": [{"measurement": "Percent inhibition of acidity of gastric juice", "setting": "gastric secretion", "result": 37, "unit": "%"}, {"measurement": "Percent inhibition of volume of gastric juice secretion", "setting": "gastric secretion", "result": 64, "unit": "%"}]}, {"compound": "c1ccc(Nc2nc(-c3ccc(CN4CCCCC4)s3)cs2)cc1", "note": "[Example 53, 2-Phenylamino-4-(5-piperidinomethyl-2-thienyl)thiazole]", "values": [{"measurement": "ED50", "setting": "tonic seizure", "result": "50 to 100", "unit": "mg/kg"}]}, {"compound": "Nc1nc(-c2ccc(CCN3CCCCC3)s2)cs1.O=C(O)/C=C\\C(=O)O", "note": "[Example 54, 2-Amino-4-[5-(2-piperidinoethyl)-2-thienyl]thiazole maleate]", "values": [{"measurement": "ED50", "setting": "tonic seizure", "result": "50 to 100", "unit": "mg/kg"}]}, {"compound": "Nc1nc(-c2ccc(CCN3CCN(c4cccc(Cl)c4)CC3)s2)cs1", "note": "[Example 55, 2-Amino-4-[5-(2-(4-(3-chlorophenyl)-1-piperazinyl)ethyl)-2-thienyl]thiazolehydrochloride]", "values": [{"measurement": "ED50", "setting": "tonic seizure", "result": 50, "unit": "mg/kg"}, {"measurement": "survival of mice, intraperitoneal", "setting": "Toxicity; in vivo", "result": "All mice survived"}, {"measurement": "survival of mice, oral", "setting": "Toxicity; in vivo", "result": "All mice survived"}]}, {"compound": "Nc1nc(-c2ccc(CCN3CCOCC3)s2)cs1", "note": "[Example 65, 2Amino-4-[5-(2-morpholinoethyl)-2-thienyl]thiazole]", "values": [{"measurement": "Percent inhibition of acidity of gastric juice", "setting": "gastric secretion", "result": 39, "unit": "%"}, {"measurement": "Percent inhibition of volume of gastric juice secretion", "setting": "gastric secretion", "result": 61, "unit": "%"}, {"measurement": "Extention of the survival time (percentage, against control group)", "setting": "hypoxia", "result": 158, "unit": "%"}]}]}
